Data on three compounds can be found in patent US9983195B2, “Engineered three-dimensional breast tissue, adipose tissue, and tumor disease model” (ORGANOVO, INC., priority 2014, dated 2018).

What all share (format): cell-based, human
Test [1] concerns breast cancer cells in two-dimensional culture and bioprinted breast cancer tumor models. The experiment in a line: Viability by ATP luciferase assay, two-dimensional breast cancer cell culture versus bioprinted breast cancer tumor models. As to conditions: 10 μM tamoxifen for 48 hours, FIG. 20. The source says:
(§1) The breast cancer tumor models included a nodule of human breast cancer cells surrounded by a physiologically-relevant stromal layer, which included human adipocytes differentiated from human mesenchymal stem cells, human mammary fibroblasts, and human endothelial cells. The adipocytes were derived from mesenchymal stem cells which were isolated an exposed to an adipocyte differentiation signal prior to preparation of the bio-ink and bioprinting.
The breast cancer tumor models were exposed to chemotherapy compounds in order to access drug response. Referring to FIG. 20, breast cancer cells grown in two-dimensional cell culture (A) and the bioprinted breast cancer tumor models (B) were treated with media alone, DMSO, or 10 μM tamoxifen for 48 hours and assessed for viability by ATP luciferase assay. For each graph, * indicates p<0.05 for treatment compared to control.

Test [2] concerns bioprinted breast cancer tumor models (stromal and cancer compartments). The experiment in a line: Apoptosis by TUNEL staining with CK8 and TE7 markers in bioprinted breast cancer tumor models. Particulars: 100 μM cisplatin for 4 days; FIG. 22.
Description: as §1
Referring to FIG. 22, bioprinted tissues were treated with vehicle (A-C) or 100 μM cisplatin (D-F) for 4 days. The first (A and D) and second (B and E) columns depict tissues assessed for apoptosis by TUNEL staining (green) and markers for cancer cells (CK8, red). The last (C and F) column depicts tissues assessed for apoptosis by TUNEL staining (green) and markers for fibroblasts (TE7, red).

Test [3] has as its system bioprinted breast cancer constructs (MCF7/HUVEC cancer node surrounded by NHMF, HUVEC, SPA stroma). The experiment in a line: Construct viability after drug treatment by alamarBlue assay. As to conditions: 10 μM compound for 3 days, followed by 100 μM compound for 24 hours; FIG. 14.
Description: Bioprinted breast cancer constructs were generated in which a cancer cell node, composed of MCF7 breast cancer cells and human umbilical vein endothelial (HUVEC) cells, is surrounded on all sides by a stromal compartment composed of normal human mammary fibroblasts (NHMF), HUVEC cells, and subcutaneous preadipocytes (SPA). Bio-inks were produced by combining cells with a reversibly cross-linkable, alginate-containing hydrogel (Novogel® 3.0 System; Organovo, Calif.). The stromal compartment of the constructs was comprised of 65% NHMF, 25% HUVEC, and 10% SPA (partially pre-differentiated). The cancer compartment of the constructs was comprised of 75% MCF7, 25% HUVEC. For each compartment, cells were mixed together at the indicated ratio and resuspended in Novogel® 3.0 at a concentration of 150 million cells/ml. Constructs were printed as 3 layered structures with a dimension of 3 mm×3 mm×0.75 mm. Immediately following bioprinting, constructs were stabilized via crosslinking. After 2 minutes, the calcium crosslinking solution was aspirated and replaced with culture media. After 2 days in culture, constructs were treated overnight with enzyme dissolved in culture media to remove the Novogel® 3.0. […] Constructs were assessed for metabolic activity by alamarBlue assay (Life Technologies, Carlsbad, Calif.) or CellTiter Glo assay (Promega, Madison, Wis.). […]

Regarding `CC/C(=C(\c1ccccc1)c1ccc(OCCN(C)C)cc1)c1ccccc1` [tamoxifen], the “susceptibility to tamoxifen-induced toxicity, two-dimensional cells versus three-dimensional bioprinted constructs” value in test [1] is listed as “Isolated two-dimensional cancer cells were more susceptible to tamoxifen-induced toxicity than cells incorporated into three-dimensional bioprinted constructs”. Regarding `N.N.[Cl][Pt][Cl]` [Cisplatin, cisplatin], the “apoptosis (TUNEL) in stromal versus cancer compartment” value in test [2] was “induces greater apoptosis in the stromal compartment of bioprinted tissues than in the cancer compartment”. Also, in test [3], the “construct viability (alamarBlue) relative to media or vehicle controls” value is listed as “decreased construct viability”. Consider `CC(=O)O[C@H]1C(=O)[C@@]2(C)[C@H]([C@H](OC(=O)c3ccccc3)[C@]3(O)C[C@H](OC(=O)[C@H](O)[C@@H](NC(=O)c4ccccc4)c4ccccc4)C(C)=C1C3(C)C)[C@]1(OC(C)=O)CO[C@@H]1C[C@@H]2O` [paclitaxel], for which the “construct viability (alamarBlue) relative to media or vehicle controls” value in test [3] is listed as “decreased construct viability”.
